Results as given in patent US7118895B2, “Process for producing aglycon by using diglycosidase and flavor-improved food containing the aglycon and converting agent to be used in the process” (Amano Enzyme Inc., priority 2000, dated 2006).

Tested on: Crude diglycosidase
Experiment: Examination of pH in the conversion into isoflavone aglycons by diglycosidase using soybean materials
Format: biochemical, Penicillium multicolor IAM7153
Design: Decomposition efficiency of genistin family in soymilk / Decomposition efficiency of genistin family in defatted soybean / Decomposition efficiency of daidzin family in defatted soybean: concentration or dose not given beside the values
Method in brief: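 Each soybean material (50 mg) is suspended and set to a pH between 2 and 11. Crude diglycosidase, adjusted to 1.88 AU/mL in enzyme solution of the same pH, is added, and the mixture is incubated at 55° C. Ethanol is added at 0, 1, 3 and 6 h, then supernatants go to HPLC.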

Decomposition efficiency of genistin family in defatted soybean (pH2.6, heat treatment of enzyme: no, reaction time 1 h): 17.7%
Decomposition efficiency of genistin family in defatted soybean (pH2.6, heat treatment of enzyme: no, reaction time 3 h): 32.7%
Decomposition efficiency of genistin family in defatted soybean (pH2.6, heat treatment of enzyme: no, reaction time 6 h): 34.6%
Decomposition efficiency of genistin family in defatted soybean (pH3.4, heat treatment of enzyme: no, reaction time 1 h): 56.9%
Decomposition efficiency of genistin family in defatted soybean (pH3.4, heat treatment of enzyme: no, reaction time 3 h): 62.5%
Decomposition efficiency of genistin family in defatted soybean (pH3.4, heat treatment of enzyme: no, reaction time 6 h): 68.8%
Decomposition efficiency of genistin family in defatted soybean (pH3.4, heat treatment of enzyme: yes, reaction time 6 h): 14.1%
Decomposition efficiency of genistin family in defatted soybean (pH4.8, heat treatment of enzyme: no, reaction time 0 h): 14.5%
Decomposition efficiency of genistin family in defatted soybean (pH4.8, heat treatment of enzyme: no, reaction time 1 h): 56.1%
Decomposition efficiency of genistin family in defatted soybean (pH4.8, heat treatment of enzyme: no, reaction time 3 h): 61.9%
Decomposition efficiency of genistin family in defatted soybean (pH4.8, heat treatment of enzyme: no, reaction time 6 h): 68.5%
Decomposition efficiency of genistin family in defatted soybean (pH4.8, heat treatment of enzyme: yes, reaction time 6 h): 25.2%
Decomposition efficiency of genistin family in defatted soybean (pH5.4, heat treatment of enzyme: no, reaction time 0 h): 14.5%
Decomposition efficiency of genistin family in defatted soybean (pH5.4, heat treatment of enzyme: no, reaction time 1 h): 51.5%
Decomposition efficiency of genistin family in defatted soybean (pH5.4, heat treatment of enzyme: no, reaction time 3 h): 55.4%
Decomposition efficiency of genistin family in defatted soybean (pH5.4, heat treatment of enzyme: no, reaction time 6 h): 60.3%
Decomposition efficiency of genistin family in defatted soybean (pH5.4, heat treatment of enzyme: yes, reaction time 6 h): 48.0%
Decomposition efficiency of genistin family in defatted soybean (pH6.6, heat treatment of enzyme: no, reaction time 1 h): 49.3%
Decomposition efficiency of genistin family in defatted soybean (pH6.6, heat treatment of enzyme: no, reaction time 3 h): 51.4%
Decomposition efficiency of genistin family in defatted soybean (pH6.6, heat treatment of enzyme: no, reaction time 6 h): 53.7%
Decomposition efficiency of genistin family in defatted soybean (pH6.6, heat treatment of enzyme: yes, reaction time 6 h): 46.4%
Decomposition efficiency of genistin family in defatted soybean (pH7.8, heat treatment of enzyme: no, reaction time 1 h): 36.7%
Decomposition efficiency of genistin family in defatted soybean (pH7.8, heat treatment of enzyme: no, reaction time 3 h): 42.5%
Decomposition efficiency of genistin family in defatted soybean (pH7.8, heat treatment of enzyme: no, reaction time 6 h): 45.7%
Decomposition efficiency of genistin family in defatted soybean (pH7.8, heat treatment of enzyme: yes, reaction time 6 h): 22.0%
SMILES: O=c1c(-c2ccc(O)cc2)coc2cc(O)cc(O)c12 [genistein]
